Legend:
PSMA = target: T1, PSMA (Homo sapiens, UniProt Q04609); experiment: Real-time binding kinetics on living PC3-pip cells (LigandTracer Yellow); details: 5 nM tracer, 1:2 interaction model; for Kd: read-out: KD1
T1 construct: expressed in transfected cells; host or cells: PC3-pip cells (from Prof. Martin G. Pomper, Johns Hopkins University)
Experimental: The binding kinetics of [^99mTc]Tc-labeled BQ0411, BQ0412, and BQ0413 were measured in real time using LigandTracer Yellow Instruments (Ridgeview Instruments AB, Uppsala, Sweden) on PC3-pip cells, as described earlier. The activity binding was recorded at 5 nM on the radiolabeled tracers for 150 min. After measuring the binding kinetics, the medium containing the labeled tracer was replaced with fresh medium, and the dissociation was monitored over 7 h. […]

[1] = of the [99mTc]Tc-labeled ligand; cited from earlier work
[2] = Octanol/water distribution coefficient (LogD); type: physicochemical; details: n-octanol / Milli-Q water
Experimental: The LogD was determined experimentally based on the procedure described earlier. Briefly, the radiolabeled compound of interest was added to a LoBind Eppendorf tube (Eppendorf, Hamburg, Germany) containing Milli-Q water (500 μL) and n-octanol (500 μL), and the mixture was vortexed and centrifuged. Thereafter, three fractions from each phase were collected and the activity was measured using a gamma counter. The LogD was calculated by dividing the average activity measured in octanol by the average activity measured in water.

[3] = system: PSMA-expressing prostate cancer xenografts (PC3-pip); experiment: Biodistribution and tumor targeting in PC3-pip tumor-bearing mice; type: in vivo, BALB/c nu/nu mice; details: 3 h pi
Experimental: PSMA-expressing prostate cancer xenografts were implanted in BALB/c nu/nu mice by subcutaneous injection of PC3-pip cell suspension in PBS (10^7 cells/animal in 100 µL). The average tumor weight was 0.3 ± 0.2 g at the time of the experiment. Four mice per data point were used. Mice were intravenously injected with 5 nmol of the radiotracer (60 kBq, the mass of the injected compound was adjusted with an unlabeled tracer). The mice were euthanized 3 h pi, and the samples were treated as described above.

[4] = Biodistribution in NMRI mice; type: in vivo; details: for activity in carcass / activity in intestines with content / uptake in blood / uptake in kidney / uptake in liver / uptake in lung / uptake in salivary glands / uptake in spleen / uptake in stomach: 40 pmol/mouse iv
Experimental: Four NMRI mice were intravenously injected with 40 pmol of the radiotracer (60 kBq, the mass of the injected compound was adjusted with an unlabeled tracer). The mice were euthanized with a lethal intraperitoneal injection of ketamine/xylazine, followed by exsanguination at 3 and 24 h post-injection (pi). The organs of interest were collected, weighed, and measured for their activity content using a gamma counter. The uptake activity in organs was calculated as the percentage of injected activity per gram (%IA/g) for the blood, salivary glands, lungs, liver, spleen, stomach, and kidneys and as %IA for the remaining carcass and the rest of the intestines with content.

T1 sequence (Q04609 whole entry): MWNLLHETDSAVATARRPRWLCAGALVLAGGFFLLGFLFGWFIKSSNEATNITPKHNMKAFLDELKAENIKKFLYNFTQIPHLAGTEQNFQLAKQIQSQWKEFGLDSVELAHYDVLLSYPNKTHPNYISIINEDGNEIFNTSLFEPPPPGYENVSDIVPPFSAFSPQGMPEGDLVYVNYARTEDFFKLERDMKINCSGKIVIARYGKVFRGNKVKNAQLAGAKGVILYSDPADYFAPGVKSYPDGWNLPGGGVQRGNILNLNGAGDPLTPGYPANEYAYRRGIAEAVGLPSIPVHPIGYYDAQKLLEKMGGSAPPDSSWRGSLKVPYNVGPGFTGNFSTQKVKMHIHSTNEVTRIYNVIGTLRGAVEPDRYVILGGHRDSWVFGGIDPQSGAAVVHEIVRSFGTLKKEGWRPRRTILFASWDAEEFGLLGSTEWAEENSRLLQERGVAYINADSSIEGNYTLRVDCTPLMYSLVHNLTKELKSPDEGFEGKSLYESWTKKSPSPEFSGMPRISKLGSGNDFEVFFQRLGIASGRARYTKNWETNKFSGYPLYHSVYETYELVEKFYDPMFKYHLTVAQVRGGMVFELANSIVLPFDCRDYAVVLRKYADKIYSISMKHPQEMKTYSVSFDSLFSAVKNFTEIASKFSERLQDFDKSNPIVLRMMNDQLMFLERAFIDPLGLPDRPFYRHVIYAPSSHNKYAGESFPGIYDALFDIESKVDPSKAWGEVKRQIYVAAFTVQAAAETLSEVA

**Q.** Which Kd (PSMA) does the source give for `CC(=O)NC(CCCCNC(=O)CNC(=O)C[N]1C(=O)C[N]2C(=O)C[N]3C(=O)C[S][TcH]132=[O])C(=O)NCCCCCCCC(=O)NC(Cc1ccc(O)cc1)C(=O)NC(Cc1ccc2ccccc2c1)C(=O)NCCCCC(NC(=O)NC(CCC(=O)O)C(=O)O)C(=O)O` (stereo not drawn) [[^99mTc]Tc-BQ0411] here?
**A.** 0.604 nM

**Q.** For `CC(=O)N[C@@H](CCCCNC(=O)CNC(=O)CNC(=O)CNC(=O)CNC(=O)CS)C(=O)NCCCCCCCC(=O)N[C@@H](Cc1ccc(O)cc1)C(=O)N[C@@H](Cc1ccc2ccccc2c1)C(=O)NCCCC[C@H](NC(=O)N[C@@H](CCC(=O)O)C(=O)O)C(=O)O` [BQ0411], which overall charge [1] is on record?
**A.** −1

**Q.** With `CC(=O)N[C@@H](CCCCNC(=O)CNC(=O)C(CCC(=O)O)[N]1C(=O)C(CCC(=O)O)[N]2C(=O)C(CCC(=O)O)[N]3C(=O)C[S][TcH]312=[O])C(=O)NCCCCCCCC(=O)N[C@@H](Cc1ccc(O)cc1)C(=O)N[C@@H](Cc1ccc2ccccc2c1)C(=O)NCCCC[C@H](NC(=O)N[C@@H](CCC(=O)O)C(=O)O)C(=O)O` (stereo partly drawn) [[^99mTc]Tc-BQ0413] as the compound, how does the Kd (PSMA) read?
**A.** 0.089 nM

**Q.** With `CC(=O)N[C@@H](CCCCNC(=O)C[N]1C(=O)C[N]2C(=O)C[N]3C(=O)C[S][TcH]132=[O])C(=O)NCCCCCCCC(=O)N[C@@H](Cc1ccc(O)cc1)C(=O)N[C@@H](Cc1ccc2ccccc2c1)C(=O)NCCCC[C@H](NC(=O)N[C@@H](CCC(=O)O)C(=O)O)C(=O)O` [[^99mTc]Tc-BQ0412] as the compound, how does the Kd (PSMA) read?
**A.** 0.44 nM

**Q.** For `CC(=O)N[C@@H](CCCCNC(=O)CNC(=O)CNC(=O)CNC(=O)CS)C(=O)NCCCCCCCC(=O)N[C@@H](Cc1ccc(O)cc1)C(=O)N[C@@H](Cc1ccc2ccccc2c1)C(=O)NCCCC[C@H](NC(=O)N[C@@H](CCC(=O)O)C(=O)O)C(=O)O` [BQ0412], which overall charge [1] is on record?
**A.** −1

**Q.** Which overall charge [1] does the source give for `CC(=O)N[C@@H](CCCCNC(=O)CNC(=O)C(CCC(=O)O)NC(=O)C(CCC(=O)O)NC(=O)C(CCC(=O)O)NC(=O)CS)C(=O)NCCCCCCCC(=O)N[C@@H](Cc1ccc(O)cc1)C(=O)N[C@@H](Cc1ccc2ccccc2c1)C(=O)NCCCC[C@H](NC(=O)N[C@@H](CCC(=O)O)C(=O)O)C(=O)O` (stereo partly drawn) [BQ0413] here?
**A.** −4

**Q.** With `CC(=O)N[C@@H](CCCCNC(=O)CNC(=O)C(CCC(=O)O)[N]1C(=O)C(CCC(=O)O)[N]2C(=O)C(CCC(=O)O)[N]3C(=O)C[S][99Tc-]312=[O])C(=O)NCCCCCCCC(=O)N[C@@H](Cc1ccc(O)cc1)C(=O)N[C@@H](Cc1ccc2ccccc2c1)C(=O)NCCCC[C@H](NC(=O)N[C@@H](CCC(=O)O)C(=O)O)C(=O)O` (stereo partly drawn) [[^99mTc]Tc-BQ0413] as the compound, how does the “logD (octanol–water distribution coefficient)” value [2] read?
**A.** −2.5 ± 0.1

**Q.** And the ka1 (PSMA)?
**A.** 33000 M⁻¹ s⁻¹

**Q.** And the ka2 (PSMA)?
**A.** 2.9e+08 M⁻¹ s⁻¹

**Q.** And the kd1 (PSMA)?
**A.** 2.9e-06 s⁻¹

**Q.** And the kd2 (PSMA)?
**A.** 2.3e-09 s⁻¹

**Q.** What about the activity in carcass ([3]; 5 nmol/mouse iv) of the same compound?
**A.** 1.7 ± 0.3 %IA/sample

**Q.** What about the “activity in intestines with content” value ([3]; 5 nmol/mouse iv) of the same compound?
**A.** 1.7 ± 0.2 %IA/sample

**Q.** And the uptake in blood ([3]; 5 nmol/mouse iv)?
**A.** 0.17 ± 0.04 %IA/g

**Q.** What about the uptake in bone ([3]; 5 nmol/mouse iv) of the same compound?
**A.** 0.2 ± 0.1 %IA/g

**Q.** And the uptake in kidney ([3]; 5 nmol/mouse iv)?
**A.** 9 ± 2 %IA/g

**Q.** What about the uptake in liver ([3]; 5 nmol/mouse iv) of the same compound?
**A.** 0.3 ± 0.1 %IA/g

**Q.** And the uptake in lung ([3]; 5 nmol/mouse iv)?
**A.** 0.3 ± 0.1 %IA/g

**Q.** What about the uptake in muscle ([3]; 5 nmol/mouse iv) of the same compound?
**A.** 0.06 ± 0.02 %IA/g

**Q.** And the uptake in pancreas ([3]; 5 nmol/mouse iv)?
**A.** 0.13 ± 0.02 %IA/g

**Q.** What about the “uptake in salivary glands” value ([3]; 5 nmol/mouse iv) of the same compound?
**A.** 0.5 ± 0.1 %IA/g

**Q.** And the “uptake in small intestine” value ([3]; 5 nmol/mouse iv)?
**A.** 0.2 ± 0.1 %IA/g

**Q.** What about the uptake in spleen ([3]; 5 nmol/mouse iv) of the same compound?
**A.** 0.9 ± 0.5 %IA/g

**Q.** And the uptake in stomach ([3]; 5 nmol/mouse iv)?
**A.** 0.6 ± 0.2 %IA/g

**Q.** And the uptake in tumor ([3]; 5 nmol/mouse iv)?
**A.** 17 ± 3 %IA/g

**Q.** What about the tumor-to-blood ratio ([3]; 5 nmol/mouse) of the same compound?
**A.** 94 ± 3

**Q.** What about the tumor-to-bone ratio ([3]; 5 nmol/mouse) of the same compound?
**A.** 114 ± 29

**Q.** And the tumor-to-liver ratio ([3]; 5 nmol/mouse)?
**A.** 48 ± 5

**Q.** And the tumor-to-lung ratio ([3]; 5 nmol/mouse)?
**A.** 52 ± 8

**Q.** What about the tumor-to-muscle ratio ([3]; 5 nmol/mouse) of the same compound?
**A.** 284 ± 19

**Q.** What about the tumor-to-pancreas ratio ([3]; 5 nmol/mouse) of the same compound?
**A.** 137 ± 10

**Q.** What about the tumor-to-salivary ratio ([3]; 5 nmol/mouse) of the same compound?
**A.** 31 ± 3

**Q.** What about the tumor-to-small intestine ratio ([3]; 5 nmol/mouse) of the same compound?
**A.** 126 ± 57

**Q.** And the tumor-to-spleen ratio ([3]; 5 nmol/mouse)?
**A.** 16 ± 4

**Q.** What about the tumor-to-stomach ratio ([3]; 5 nmol/mouse) of the same compound?
**A.** 24 ± 2

**Q.** What about the activity in carcass ([4]; 3 h pi) of the same compound?
**A.** 9 ± 1 %IA/sample

**Q.** What about the “activity in intestines with content” value ([4]; 3 h pi) of the same compound?
**A.** 3.8 ± 0.4 %IA/sample

**Q.** And the uptake in blood ([4]; 3 h pi)?
**A.** 0.5 ± 0.1 %IA/g

**Q.** What about the uptake in kidney ([4]; 3 h pi) of the same compound?
**A.** 242 ± 43 %IA/g

**Q.** What about the uptake in liver ([4]; 3 h pi) of the same compound?
**A.** 0.7 ± 0.1 %IA/g

**Q.** And the uptake in lung ([4]; 3 h pi)?
**A.** 1.0 ± 0.3 %IA/g

**Q.** What about the “uptake in salivary glands” value ([4]; 3 h pi) of the same compound?
**A.** 3.0 ± 0.1 %IA/g

**Q.** And the uptake in spleen ([4]; 3 h pi)?
**A.** 1.2 ± 0.3 %IA/g

**Q.** And the uptake in stomach ([4]; 3 h pi)?
**A.** 3.1 ± 0.5 %IA/g

**Q.** And the activity in carcass ([4]; 24 h pi)?
**A.** 1.4 ± 0.2 %IA/sample

**Q.** And the “activity in intestines with content” value ([4]; 24 h pi)?
**A.** 0.5 ± 0.2 %IA/sample

**Q.** And the uptake in blood ([4]; 24 h pi)?
**A.** 0.05 ± 0.01 %IA/g

**Q.** What about the uptake in kidney ([4]; 24 h pi) of the same compound?
**A.** 56 ± 14 %IA/g

**Q.** And the uptake in liver ([4]; 24 h pi)?
**A.** 0.21 ± 0.03 %IA/g

**Q.** And the uptake in lung ([4]; 24 h pi)?
**A.** 0.18 ± 0.03 %IA/g

**Q.** And the “uptake in salivary glands” value ([4]; 24 h pi)?
**A.** 0.30 ± 0.01 %IA/g

**Q.** And the uptake in spleen ([4]; 24 h pi)?
**A.** 0.3 ± 0.2 %IA/g

**Q.** And the uptake in stomach ([4]; 24 h pi)?
**A.** 1.0 ± 0.5 %IA/g

**Q.** What about the “washout of activity from kidneys” value ([4]; 24 h pi compared to 3 h pi) of the same compound?
**A.** 77%
